The nature of series [1]: Selectivity ratio of IC50 for inhibition of GRP94 (unknown origin) to IC50 for inhibition of HSP90alpha (unknown origin).
The target of series [2] is Heat shock protein HSP90 (Homo sapiens, UniProt P07900+P08238). As to the kind of experiment: Binding affinity to Hsp90 (unknown origin) assessed as dissociation constant incubated for 30 mins by fluorescence spectrophotometric analysis. The format is protein assay.
Series [3] has as its target T1, Heat shock protein HSP 90-alpha (Homo sapiens, UniProt P07900). As to the kind of experiment: Inhibition of HSP90alpha (unknown origin) incubated for 12 to 16 hrs by FP competition assay.
Series [4] concerns the target T2, Endoplasmin (Homo sapiens, UniProt P14625). Description: Inhibition of GRP94 (unknown origin) incubated for 12 to 16 hrs by FP competition assay.
Series [5] relates to K562. Description: Antiproliferative activity against human K562 cells assessed as cell viability inhibition rate incubated for 72 hr by MTT assay. The conditions noted are these: K562, 72 h. Format: functional, cell-based. (Tetrazolium dyes change colour on reduction, which living cells bring about.)
Series [6] relates to A549. As to the kind of experiment: Antiproliferative activity against human A549 cells assessed as cell viability inhibition rate incubated for 72 hr by MTT assay. Format: functional, cell-based. The conditions noted are these: A549, 72 h.
The test system of series [7] is SK-BR-3. As to the kind of experiment: Antiproliferative activity against human SK-BR-3 cells assessed as cell viability inhibition rate incubated for 72 hr by MTT assay. Format: functional, cell-based. The conditions noted are these: SK-BR-3, 72 h.
Series [8] deals with MCF7. As to the kind of experiment: Antiproliferative activity against human MCF7 cells assessed as cell viability inhibition rate incubated for 72 hr by MTT assay. The format is functional, cell-based. The conditions noted are these: MCF7, 72 h.
Series [9] deals with HCT-116. Description: Antiproliferative activity against human HCT-116 cells assessed as cell viability inhibition rate incubated for 72 hr by MTT assay. Format: functional, cell-based. The conditions noted are these: HCT-116, 72 h.
A short description of series [10]: Oral bioavailability in rat at 50 mg/kg and measured upto 24 hr by LC-MS/MS analysis. The format is ADME, organism-based. The conditions noted are these: in vivo.
Series [11] is described as follows: Clearance in rat plasma at 50 mg/kg, po and measured upto 24 hr by LC-MS/MS analysis. Format: ADME, organism-based.
Series [12] is described as follows: Half life in rat plasma at 50 mg/kg, po and measured upto 24 hr by LC-MS/MS analysis. Format: ADME, organism-based.
The nature of series [13]: Tmax in rat plasma at 50 mg/kg, po and measured upto 24 hr by LC-MS/MS analysis. Format: ADME, organism-based.
Series [14] can be described thus: Cmax in rat plasma at 50 mg/kg, po and measured upto 24 hr by LC-MS/MS analysis. Format: ADME, organism-based.
Series [15] in a line: AUC in rat plasma at 50 mg/kg, po and measured upto 24 hr by LC-MS/MS analysis. Format: ADME, organism-based.
Series [16] has as its target T1, Heat shock protein HSP 90-alpha. As to the kind of experiment: Binding affinity to Hsp90alpha (unknown origin) assessed as dissociation constant.
In series [17] the target is T2, Endoplasmin. Description: Binding affinity to GRP94 (unknown origin) assessed as dissociation constant.

The term Kd denotes the concentration at which binding is half-saturated. For orientation: IC50 means the midpoint of a concentration-inhibition curve. For orientation: bioavailability means the share of a dose that reaches the circulation, judged against a reference dose that is usually intravenous. High values mean good availability, low ones poor availability. As a reminder, the CL/F is the apparent clearance, not corrected for the fraction that reaches the circulation. One may read the half-life as the time needed for the level to fall by half in the phase considered. A lower half-life goes with fast loss. In general, Tmax refers to the time from dosing to the highest level. For orientation: Cmax means the maximum level reached in the sampled fluid or tissue. In general, AUC refers to the area under the concentration-time curve, a measure of exposure. High values mean more exposure, low ones less exposure.

T2 sequence (P14625 whole entry): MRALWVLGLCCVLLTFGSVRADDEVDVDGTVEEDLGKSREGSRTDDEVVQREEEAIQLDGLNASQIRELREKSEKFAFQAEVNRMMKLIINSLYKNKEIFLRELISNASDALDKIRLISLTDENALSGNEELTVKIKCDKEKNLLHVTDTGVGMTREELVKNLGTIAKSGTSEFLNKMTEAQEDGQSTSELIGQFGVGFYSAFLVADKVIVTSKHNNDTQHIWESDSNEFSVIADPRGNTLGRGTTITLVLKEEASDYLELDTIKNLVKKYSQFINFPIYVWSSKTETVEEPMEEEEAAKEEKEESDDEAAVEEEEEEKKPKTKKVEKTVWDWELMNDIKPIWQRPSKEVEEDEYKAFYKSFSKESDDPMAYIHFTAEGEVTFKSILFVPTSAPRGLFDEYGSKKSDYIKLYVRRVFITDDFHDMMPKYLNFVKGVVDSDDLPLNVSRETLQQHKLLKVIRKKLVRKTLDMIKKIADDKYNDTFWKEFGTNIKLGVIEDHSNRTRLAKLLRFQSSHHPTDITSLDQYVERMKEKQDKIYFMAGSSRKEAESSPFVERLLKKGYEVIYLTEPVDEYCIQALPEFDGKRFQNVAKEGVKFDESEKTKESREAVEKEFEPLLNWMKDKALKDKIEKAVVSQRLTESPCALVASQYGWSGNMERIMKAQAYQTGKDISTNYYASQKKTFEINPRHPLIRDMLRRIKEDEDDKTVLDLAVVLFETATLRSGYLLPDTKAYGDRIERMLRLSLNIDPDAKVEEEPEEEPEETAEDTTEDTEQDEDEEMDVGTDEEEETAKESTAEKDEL

Consider `CC(C)c1cc(C(=O)N2C[C@@H](c3ccccc3)C[C@@H]2C(=O)NCCc2ccccc2)c(O)cc1O`, for which the Ratio IC50 in series [1] was found to be 2.22. Also, in [2], the equilibrium dissociation constant (Kd) is listed as 32 nM. The half-inhibitory concentration (IC50) came to 137 nM in [3]; 304 nM in [4]; 623 nM in series [5]; 45 nM in series [6]; 371 nM in [7]; 54 nM in series [8]. Further, the IC50 in [9] was found to be 271 nM.

On to `O=C(NCCCN1CCOCC1)[C@H]1C[C@H](c2ccccc2)CN1C(=O)c1cc(C2CC2)c(O)cc1O`, for which, in [1], the Ratio IC50 is 1.49. This compound also showed a bioavailability in series [10] of 7.1%. The compound further had a CL/F in series [11] of 1.75 mL/min/kg. For the same compound, in series [2], the Kd was determined as 68 nM. Also, the IC50 was found to be 136 nM in [3]; 203 nM in series [4]; 403 nM in series [5]; 31 nM in series [6]; 105 nM in [7]; 72 nM in [8]. Also, the half-inhibitory concentration (IC50) in [9] came out at 187 nM. Also, in series [12], the half-life is 6.9 h. In addition, in series [13], the Tmax is 0.883 h. In addition, in [14], the Cmax came out at 76.5 µg/mL. In series [15], this compound had an AUC at 24 h of 239 µg·h/mL.

Consider `CC(C)c1cc(C(=O)N2C[C@@H](c3ccccc3)C[C@@H]2C(=O)NCCCN2CCOCC2)c(O)cc1O`, for which the Ratio IC50 in series [1] is 5.02. The compound further had a bioavailability in [10] of 5.5%. Also, the apparent clearance CL/F in series [11] was 1.46 mL/min/kg. Also, in [2], the Kd was found to be 87 nM. Besides, the IC50 in series [3] turned out to be 154 nM; in series [4] it was 773 nM; in series [5] it was 433 nM; in series [6], 28 nM; in [7], 210 nM; in series [8], 61 nM. Moreover, the IC50 in series [9] came to 206 nM. Besides, in [12], the half-life is 5.8 h. For the same compound, the Tmax in series [13] was 0.733 h. The compound also returned a Cmax in [14] of 65.7 µg/mL. The same compound displayed an area under the curve (AUC) at 24 h in series [15] of 186 µg·h/mL.

For `CC(C)c1cc(C(=O)N2Cc3ccc(CN4CCN(C)CC4)cc3C2)c(O)cc1O` [ONALESPIB], in series [1], the Ratio IC50 came out at 0.6. Besides, the Kd in [2] stood at 27 nM; in series [16] it was 50 nM; in [17], 30 nM. Also, the IC50 in [3] stood at 50 nM; in series [4] it was 30 nM; in [5], 465 nM; in [6] it was 131 nM; in [7], 197 nM; in [8], 53 nM. The half-inhibitory concentration (IC50) in series [9] was 102 nM.

The values are drawn from ChEMBL document CHEMBL6153150, “Design, Synthesis, and Biological Evaluation of Chiral-Proline Derivatives as Novel HSP90 Inhibitors” (ACS Med Chem Lett, 2025).
